According to patent US20250319015A1, “VACCINIUM MACROCARPON EXTRACT AND ANTI-AGEING COSMETIC EFFECTS THEREOF” (SOCIETE INDUSTRIELLE LIMOUSINE D'APPLICATION BIOLOGIQUE, priority 2021, published 2025):

Legend:
[1] = test system: human keratinocytes from older donors (≥60 years); assay: Gene expression by quantitative PCR on older human keratinocytes; type: cell-based; conditions: 1 μM Retinol
Protocol: (§1) The procedure of the study is described below. The young and older human cells are seeded and incubated at 37° C. […] After several days, the cells are recovered and the total RNA extracted. The RNAs were reverse-transcribed and the complementary DNAs obtained were analyzed by the quantitative PCR technique. The mRNAs of internal reference controls were analyzed in parallel with the mRNAs of the markers involved in the barrier function of the epidermis, in the DEJ and in the dermal matrix. The incorporation of fluorescence is measured continuously using a thermal cycler. The RQ (relative quantification) analysis is performed using software.

[2] = test system: older human fibroblasts by successive replications; assay: Gene expression by quantitative PCR on older human fibroblasts; type: cell-based; conditions: 1 μM Retinol
Protocol: as §1

CC1=C(/C=C/C(C)=C/C=C/C(C)=C/CO)C(C)(C)CCC1 [Retinol, retinol]
AQP3: Efficacy of retinol/older control (%) [1]: +13%
CD44: Efficacy of retinol/older control (%) [1]: +77%
CLDN1: Efficacy of retinol/older control (%) [1]: −52%
CXCL8: Efficacy of retinol/older control (%) [1]: +189%
DSG: Efficacy of retinol/older control (%) [1]: −99%
FLG: Efficacy of retinol/older control (%) [1]: −76%
HAS3: Efficacy of retinol/older control (%) [1]: +425%
IVL: Efficacy of retinol/older control (%) [1]: +126%
KRT10: Efficacy of retinol/older control (%) [1]: −97%
LOR: Efficacy of retinol/older control (%) [1]: −95%
MKI67: Efficacy of retinol/older control (%) [1]: +44%
S100A7: Efficacy of retinol/older control (%) [1]: +1384%
S100A8: Efficacy of retinol/older control (%) [1]: +23%
S100A9: Efficacy of retinol/older control (%) [1]: +108%
SOD1: Efficacy of retinol/older control (%) [1]: +7%
TGM1: Efficacy of retinol/older control (%) [1]: −31%
AQP3 expression (qPCR) ([1]; young cells control=100): 69
CD44 expression (qPCR) ([1]; young cells control=100): 147
CLDN1 expression (qPCR) ([1]; young cells control=100): 33
CXCL8 expression (qPCR) ([1]; young cells control=100): 729
DSG expression (qPCR) ([1]; young cells control=100): 1
FLG expression (qPCR) ([1]; young cells control=100): 9
HAS3 expression (qPCR) ([1]; young cells control=100): 357
IVL expression (qPCR) ([1]; young cells control=100): 120
KRT10 expression (qPCR) ([1]; young cells control=100): 2
LOR expression (qPCR) ([1]; young cells control=100): 1
MKI67 expression (qPCR) ([1]; young cells control=100): 95
S100A7 expression (qPCR) ([1]; young cells control=100): 564
S100A8 expression (qPCR) ([1]; young cells control=100): 256
S100A9 expression (qPCR) ([1]; young cells control=100): 397
SOD1 expression (qPCR) ([1]; young cells control=100): 95
TGM1 expression (qPCR) ([1]; young cells control=100): 47
ACAN: Efficacy of retinol/older control (%) [2]: −74%
AQP3: Efficacy of retinol/older control (%) [2]: +30%
BGN: Efficacy of retinol/older control (%) [2]: +24%
COL1A1: Efficacy of retinol/older control (%) [2]: +25%
COL3A1: Efficacy of retinol/older control (%) [2]: +67%
CXCL8: Efficacy of retinol/older control (%) [2]: +282%
DCN: Efficacy of retinol/older control (%) [2]: +7%
ELN: Efficacy of retinol/older control (%) [2]: +5%
FBN1: Efficacy of retinol/older control (%) [2]: −1%
HSPG2: Efficacy of retinol/older control (%) [2]: +3%
IL1: Efficacy of retinol/older control (%) [2]: +151%
LUM: Efficacy of retinol/older control (%) [2]: −3%
MMP1: Efficacy of retinol/older control (%) [2]: −24%
POSTN: Efficacy of retinol/older control (%) [2]: +24%
TGFβ1: Efficacy of retinol/older control (%) [2]: +8%
VEGFA: Efficacy of retinol/older control (%) [2]: +2%
ACAN expression (qPCR) ([2]; young cells control=100): 10
AQP3 expression (qPCR) ([2]; young cells control=100): 73
BGN expression (qPCR) ([2]; young cells control=100): 78
COL1A1 expression (qPCR) ([2]; young cells control=100): 79
COL3A1 expression (qPCR) ([2]; young cells control=100): 72
CXCL8 expression (qPCR) ([2]; young cells control=100): 803
DCN expression (qPCR) ([2]; young cells control=100): 89
ELN expression (qPCR) ([2]; young cells control=100): 63
FBN1 expression (qPCR) ([2]; young cells control=100): 90
HSPG2 expression (qPCR) ([2]; young cells control=100): 90
